This is an account of results in PMC3843955 (Antiviral research, 2013).

SMILES strings stand for the structures. “And” between values parts separate entries of the source, which are not always exact repeats. Identical values can stand only once. Like-named read-outs stand apart in the source and are kept apart here.

For one data set, the system named is HCMV. The data set can be described thus: HCMV inhibition across spread inhibition and yield reduction assays. Particulars: TD50 versus anti-HCMV EC50.
The subject of data set [1] is MCMV. The settings on record: read-out: EC50 for MCMV, cited from earlier work.
The conditions of data set [2]: human, in vivo; cited from earlier work.
Data set [3] has as its system MCMV. Particulars: sub-lethal MCMV infection in mice; ref Go et al., 2011; cited from earlier work.
In the next data set the test system is MRC-5 fibroblasts. Put plainly: CellTiter-Glo cytotoxicity assay, MRC-5. It is filed as cell-based, human. Particulars: uninfected MRC-5, ± standard deviation; for Yield inhibition MRC-5 TD50: CellTiter-Glo cytotoxicity assay after 5 d exposure to drugs; for Spread inhibition MRC-5 TD50: CellTiter-Glo cytotoxicity assay after 14 d exposure to drugs. Background: Cellular ATP, detected with luciferase, serves as a proxy for viable cell number.

`O=C(NO)c1ccc(O)c(O)c1` [DX, didox]: the “cytotoxicity TD50 fold higher than antiviral EC50” value in the data set with HCMV is 1.5- to 2 fold and 2 fold. Moreover, the EC50 (in general, the concentration that produces a half-maximal response) in the data set on MCMV [1] (ref Go et al., 2011) is 10 to 25 µM. Further, the peak plasma level entry in data set [2] is given as “approximately 300 µM”. In addition, the “viral load in livers and spleen” value with MCMV [3] is “failed to decrease viral load in livers and spleen”. In addition, in the data set with MRC-5 fibroblasts, the “Yield inhibition MRC-5 TD50” value stood at 256 ± 5.7 µM and the “Spread inhibition MRC-5 TD50” value was 146 ± 0.7 µM.

Take `NC(=O)NO` [HU, hydroxyurea]: the EC50 in the data set with MCMV [1] (ref Lembo et al., 2000) was 3 µM. The peak plasma concentration in data set [2] is 264 to 660 µM. Besides, in the data set on MRC-5 fibroblasts, the “Yield inhibition MRC-5 TD50” value is recorded as 14,500 ± 5400 µM and the “Spread inhibition MRC-5 TD50” value is 4253 ± 701 µM.

As to `N/C(=N\O)c1cc(O)c(O)c(O)c1` [TX, trimidox], the “cytotoxicity TD50 fold higher than antiviral EC50” value in the data set with HCMV was 1.5- to 2 fold and 2 fold. In the data set on MRC-5 fibroblasts, the “Yield inhibition MRC-5 TD50” value came out at 166 ± 57 µM and the “Spread inhibition MRC-5 TD50” value was 86 ± 4.2 µM.
